Patent US6730699B2, “Water soluble paclitaxel derivatives” (priority 2001, dated 2004)
pIC50: −log10 of the molar value. Like-named read-outs stand apart in the source and are kept apart here.

Tests used:
[1] = test system: SKOV3ipl human ovarian cancer cell line; experiment: Human ovarian cancer i.p. in nude mice
[2] = Acute toxicity in 13762F tumor-bearing Fischer rats
[3] = test system: rat mammary tumor cell line 13762F; experiment: Plating efficiency assay, 13762F cells; format: cell-based; details: 144 h, read-out: IC50 (50% inhibition of colony formation), 6 days of continuous exposure, approximate
in vivo = details: female, C3Hf/Kam, mouse, iv
[4] = 47 mg eq./kg + 14 Gy 24 h after PG-TXL
[5] = 80 mg eq./kg + 14 Gy 24 h after PG-TXL
[6] = 120 mg eq/kg + 14 Gy 24 h after PG-TXL
[7] = 120 mg eq/kg + 14 Gy 24 h prior to PG-TXL

Poly-Glutamic Acid-Paclitaxel [PG-TXL]
Absolute growth delay (ovarian OCa-l carcinoma; [4]): 18.2 days
Days for tumor to grow from 8-14 mm (means ± SD) (ovarian OCa-l carcinoma; [4]): 35.3 ± 4.7 days
Normalized growth delay (means ± SD) (ovarian OCa-l carcinoma; [4]): 15.5 ± 4.7 days
Absolute growth delay (ovarian OCa-l carcinoma; 47 mg eq./kg, no radiation): 2.7 days
Days for tumor to grow from 8-14 mm (means ± SD) (ovarian OCa-l carcinoma; 47 mg eq./kg, no radiation): 19.8 ± 0.98 days
Absolute growth delay (ovarian OCa-l carcinoma; [5]): 45.6 days
Days for tumor to grow from 8-14 mm (means ± SD) (ovarian OCa-l carcinoma; [5]): 62 ± 4.6 days
Normalized growth delay (means ± SD) (ovarian OCa-l carcinoma; [5]): 37.5 ± 4.6 days
Absolute growth delay (ovarian OCa-l carcinoma; 80 mg eq./kg, no radiation): 8.1 days
Days for tumor to grow from 8-14 mm (means ± SD) (ovarian OCa-l carcinoma; 80 mg eq./kg, no radiation): 25.3 ± 3.9 days
Absolute growth delay (ovarian OCa-l carcinoma; [6]): 98.4 days
Normalized growth delay (means ± SD) (ovarian OCa-l carcinoma; [6]): 85.9 ± 3.0 days
Days for tumor to grow from 8-14 mm (means ± SD) (ovarian OCa-l carcinoma; 120 mg eq/kg + 14 Gy 24 h after PG-TXL, regrown tumors only): 115 ± 3 days
Absolute growth delay (ovarian OCa-l carcinoma; [7]): 100.5 days
Normalized growth delay (means ± SD) (ovarian OCa-l carcinoma; [7]): 88 ± 1.2 days
Days for tumor to grow from 8-14 mm (means ± SD) (ovarian OCa-l carcinoma; 120 mg eq/kg + 14 Gy 24 h prior to PG-TXL, regrown tumors only): 117 ± 1.2 days
Absolute growth delay (ovarian OCa-l carcinoma; 120 mg eq/kg, no radiation): 12.5 days
Days for tumor to grow from 8-14 mm (means ± SD) (ovarian OCa-l carcinoma; 120 mg eq/kg, no radiation): 29.7 ± 3.2 days
Ascites (incidence/mice with tumor) ([1]; 120 mg/kg, three injections): 3/7
Mean vol of ascites (s.d.) ([1]; 120 mg/kg, three injections): 2.7 ± 1.4 mL
Tumor take (incidence of tumor/mice injected) ([1]; 120 mg/kg, three injections): 7/8
mice killed by a single injection ([1]; 160 mg/kg i.v., nude mice): 5 of the 10
Ascites (incidence/mice with tumor) ([1]; 160 mg/kg, single dose): 0/3
Body Weight Loss in % ([2]; 40 mg/kg single i.v.): 11.1%
Time at Nadir ([2]; 40 mg/kg single i.v.): 6 days
Time of Full Recovery ([2]; 40 mg/kg single i.v.): 11 days
Body Weight Loss in % ([2]; 60 mg/kg single i.v.): 15.7%
Time at Nadir ([2]; 60 mg/kg single i.v.): 7 days
Time of Full Recovery ([2]; 60 mg/kg single i.v.): 14 days

CC(=O)O[C@H]1C(=O)[C@@]2(C)[C@H]([C@H](OC(=O)c3ccccc3)[C@]3(O)C[C@H](OC(=O)[C@H](O)[C@@H](NC(=O)c4ccccc4)c4ccccc4)C(C)=C1C3(C)C)[C@]1(OC(C)=O)CO[C@@H]1C[C@@H]2O [Paclitaxel, paclitaxel]
pIC50 [3]: ~8.70
MTD at 2 wk (in vivo): 80 mg/kg
# of Toxic Death ([2]; 20 mg/kg single i.v.): 0/5
Body Weight Loss in % ([2]; 20 mg/kg single i.v.): 17.0%
Time at Nadir ([2]; 20 mg/kg single i.v.): 5 days
# of Toxic Death ([2]; 40 mg/kg single i.v.): 0/3
Body Weight Loss in % ([2]; 40 mg/kg single i.v.): 17.9%
Time at Nadir ([2]; 40 mg/kg single i.v.): 6 days
Time of Full Recovery ([2]; 40 mg/kg single i.v.): 16 days
# of Toxic Death ([2]; 60 mg/kg single i.v.): 1/4
Body Weight Loss in % ([2]; 60 mg/kg single i.v.): 16.7%
Time at Nadir ([2]; 60 mg/kg single i.v.): 6 days
Time of Full Recovery ([2]; 60 mg/kg single i.v.): 15 days
MTD at 2 wk ([2]; female, Fischer 344, rat, in vivo): < 20 mg/kg
